# What was measured:
# [1] = Hair switch shape and frizz control (volume) after straightening and exposure to high humidity; conditions: After 1 hour at high humidity (30 C./80% RH); switches soaked 30 minutes in 1% aqueous solution, dried, straightened with 5 passes of irons; volume vs water control
# Procedure: (§1) Dark brown European wavy hair switches of length 25 cm and weight 2 gms, were treated as follows:
# Control: After initial washing, soaked for 30 minutes in water
# Comparative Example A: After initial washing, soaked for 30 minutes in aqueous solution of 1% glycine
# Example 1: soaked for 30 minutes in aqueous solution of 1% N-formyl glycine
# (§2) At the end of the soaking period, the switches were left to dry at 20° C. and 50% RH. When dried, the switches were straightened with 5 passes of FHI irons (FHI Brands, 29003 Avenue Sherman Valencia, Calif. 91355 USA). The switches were then placed in a humidity chamber ˜30 C/80% RH for 1 hour and images were captured and analyzed.
# [2] = Hair switch volume reduction benefit after subsequent washing; conditions: switches from Example 1 subsequently washed, images captured; compared to control
# Procedure: as §1, §2
# The switches from the above example were subsequently washed and the images were captured. […] The corresponding benefits for glycine was only −10%.
structure (smiles),measurement,setting,value
"NCC(=O)O [Comparative Example A, glycine]",% shape and frizz control benefit against control,[1],−6%
same,benefit over control (volume reduction) after washing,[2],−10%
"O=CNCC(=O)O [Example 1, N-formyl glycine]",% shape and frizz control benefit against control,[1],30%
same,benefit over control (volume reduction) after washing,[2],32%
